Read-outs that look alike come from different tables or passages of the source.
Key:
recombinant mouse GALK1 = recombinant mouse GALK1 (Mus musculus, UniProt Q9R0N0); experiment: mGALK1 biochemical activity assay (Kinase-Glo Plus, ATP depletion)
Procedure, shortened: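 Recombinant GALK1 (5 nM) with 100 μM galactose; GALK1 turnover read as ATP depletion by Kinase-Glo Plus luminescence. Reaction ran 1 h at room temperature before detection reagent was added.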

PAMPA permeability = conditions: PAMPA
[1] = aqueous kinetic solubility; conditions: aqueous kinetic solubility
recombinant human GALK1 = recombinant human GALK1 (Homo sapiens, UniProt P51570); experiment: hGALK1 biochemical activity assay (Kinase-Glo Plus, ATP depletion)
Procedure, shortened: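 Turnover is measured as ATP depletion by Kinase-Glo Plus luminescence after a 1 h room-temperature reaction. Compounds span 11 concentrations, 57.4 μM–0.97 nM, in final 20 mM HEPES pH 8.0 with 5 mM MgCl2. The substrate solution held 35 μM ATP; the added solution held 5 nM human or mouse GALK1 and 100 μM galactose.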

[2] = rat microsomal stability (RLM); conditions: microsomal stability half-life
[3] = recombinant mouse GALK1, Kinase-Glo Plus ATP depletion, read-out: mGALK
[4] = recombinant human GALK1, Kinase-Glo Plus ATP depletion, read-out: hGALK
[5] = Tables 2-15, 35 μM ATP, 100 μM galactose, 1 h, bracketed figure after some values is undefined and not reported
[6] = recombinant mouse GALK1, Kinase-Glo Plus ATP depletion
[7] = Tables 2-15, 35 μM ATP, 100 μM galactose, 1 h, bracketed figure after some values (e.g. −1.2) is undefined and not reported, read-out: hGALK IC50
[8] = Tables 2-15, 35 μM ATP, 100 μM galactose, 1 h, bracketed figure after some values is undefined and not reported, read-out: mGALK IC50
[9] = Tables 2-15, 35 μM ATP, 100 μM galactose, 1 h, bracketed figure after some values (e.g. −1.2) is undefined and not reported
[10] = recombinant human GALK1, Kinase-Glo Plus ATP depletion

Chain of recombinant mouse GALK1 (Q9R0N0 whole entry): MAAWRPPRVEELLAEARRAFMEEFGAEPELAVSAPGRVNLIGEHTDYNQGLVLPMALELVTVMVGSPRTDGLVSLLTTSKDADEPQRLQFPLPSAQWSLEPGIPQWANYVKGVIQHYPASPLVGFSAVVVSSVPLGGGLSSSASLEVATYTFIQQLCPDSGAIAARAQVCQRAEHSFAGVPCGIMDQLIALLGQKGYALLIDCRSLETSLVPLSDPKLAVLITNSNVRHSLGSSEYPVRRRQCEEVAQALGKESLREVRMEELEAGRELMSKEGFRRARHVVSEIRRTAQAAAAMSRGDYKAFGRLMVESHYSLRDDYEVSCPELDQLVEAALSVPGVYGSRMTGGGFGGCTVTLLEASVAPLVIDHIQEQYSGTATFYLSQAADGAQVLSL
Chain of recombinant human GALK1 (P51570 whole entry): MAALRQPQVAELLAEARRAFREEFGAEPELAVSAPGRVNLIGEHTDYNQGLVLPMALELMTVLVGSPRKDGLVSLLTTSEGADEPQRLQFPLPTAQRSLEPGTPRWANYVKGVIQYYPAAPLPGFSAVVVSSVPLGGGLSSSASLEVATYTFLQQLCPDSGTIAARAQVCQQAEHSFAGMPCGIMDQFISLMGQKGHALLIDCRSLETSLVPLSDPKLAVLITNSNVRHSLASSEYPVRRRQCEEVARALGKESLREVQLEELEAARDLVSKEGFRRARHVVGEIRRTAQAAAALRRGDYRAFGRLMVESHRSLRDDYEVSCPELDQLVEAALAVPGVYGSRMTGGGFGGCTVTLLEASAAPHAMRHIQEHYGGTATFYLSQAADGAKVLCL

| Structure (SMILES) | IC50 (recombinant mouse GALK1; [3]) [µM] | Perm. (1 × 10^−6 cm/sec) (PAMPA permeability) | Sol. [1] [µg/mL] | IC50 (recombinant human GALK1; [4]) [µM] | Metab. Stabil. (m) [2] [m] | mGALK IC50 (recombinant mouse GALK1; [5]) | mGALK (μM) (recombinant mouse GALK1; [6]) | IC50 (recombinant human GALK1; [7]) [µM] | IC50 (recombinant mouse GALK1; [8]) [µM] | hGALK IC50 (recombinant human GALK1; [9]) | hGALK (μM) (recombinant human GALK1; [10]) |
| --- | --- | --- | --- | --- | --- | --- | --- | --- | --- | --- | --- |
| CCn1cc(CNC(=O)C2=C(C)NC(Nc3nc4ccc(F)c(N)c4o3)=NC2c2ccccc2Cl)cn1 (stereo not drawn) [Compound 136, 2-((7-amino-6-fluorobenzo[d]oxazol-2-yl)amino)-4-(2-chlorophenyl)-N-((1-ethyl-1H-pyrazol-4-yl)methyl)-6-methyl-1,4-dihydropyrimidine-5-carboxamide] | 2.17 | 133.5 1 × 10^−6 cm/sec | 23.87 | 0.19 | 17.72 |  |  |  |  |  |  |
| CC1=C(C(=O)Nc2ccccc2Cl)C(c2ccccc2Cl)N=C(Nc2nc3ccccc3o2)N1 (stereo not drawn) [Compound 140, 2-(benzo[d]oxazol-2-ylamino)-N,4-bis(2-chlorophenyl)-6-methyl-1,4-dihydropyrimidine-5-carboxamide] |  | 56.0 1 × 10^−6 cm/sec | <1 |  | 28.74 | inactive | in- active | 4.32 |  |  |  |
| CC1=C(C(=O)Nc2ccc(Cl)cc2)C(c2ccccc2Cl)N=C(Nc2nc3ccccc3o2)N1 (stereo not drawn) [Compound 141, 2-(benzo[d]oxazol-2-ylamino)-4-(2-chlorophenyl)-N-(4-chlorophenyl)-6-methyl-1,4-dihydropyrimidine-5-carboxamide] | 7.69 | 2.0 1 × 10^−6 cm/sec | <1 |  | >30 |  |  |  | 7.69 | inactive | in- active |
| CC1=C(C(=O)Nc2cccc(CO)c2)C(c2ccccc2Cl)N=C(Nc2nc3ccccc3o2)N1 (stereo not drawn) [Compound 144, 2-(benzo[d]oxazol-2-ylamino)-4-(2-chlorophenyl)-N-(3-(hydroxymethyl)phenyl)-6-methyl-1,4-dihydropyrimidine-5-carboxamide] | 9.68 | 1124.1 1 × 10^−6 cm/sec | <1 | 3.85 | >30 |  |  |  | 9.68 |  |  |
| CC1=C(C(=O)N2CCOCC2)C(c2ccccc2Cl)N=C(Nc2nc3ccccc3o2)N1 (stereo not drawn) [Compound 145, (2-(benzo[d]oxazol-2-ylamino)-4-(2-chlorophenyl)-6-methyl-1,4-dihydropyrimidin-5-yl)(morpholino)methanone] | 24.3 | 1046.7 1 × 10^−6 cm/sec | 15.3 | 24.3 | 2.1 |  |  |  |  |  |  |
| CC1=C(C(=O)Nc2cccc(Br)c2)C(c2ccccc2Cl)N=C(Nc2nc3ccccc3o2)N1 (stereo not drawn) [Compound 147, 2-(benzo[d]oxazol-2-ylamino)-N-(3-bromophenyl)-4-(2-chlorophenyl)-6-methyl-1,4-dihydropyrimidine-5-carboxamide] |  | <1.8 1 × 10^−6 cm/sec | <1 |  | >30 | inactive | in- active |  |  | inactive | in- active |
| CC1=C(C(=O)Nc2ccc(F)cc2)C(c2ccccc2Cl)N=C(Nc2nc3ccccc3o2)N1 (stereo not drawn) [Compound 148, 2-(benzo[d]oxazol-2-ylamino)-N-(4-fluorophenyl)-4-(2-chlorophenyl)-6-methyl-1,4-dihydropyrimidine-5-carboxamide] | 12.2 | 29.4 1 × 10^−6 cm/sec | <1 |  | >30 |  |  | 7.69 | 12.2 |  |  |
| CC1=C(C(=O)Nc2cccnc2)C(c2ccccc2Cl)N=C(Nc2nc3ccccc3o2)N1 (stereo not drawn) [Compound 149, 2-(benzo[d]oxazol-2-ylamino)-N-(pyridin-3-yl)-4-(2-chlorophenyl)-6-methyl-1,4-dihydropyrimidine-5-carboxamide] | 12.2 | 513.0 1 × 10^−6 cm/sec | <1 | 6.85 | 20 |  |  |  | 12.2 |  |  |
| CC1=C(C(=O)Nc2ccc(Br)cc2)C(c2ccccc2Cl)N=C(Nc2nc3ccccc3o2)N1 (stereo not drawn) [Compound 150, 2-(benzo[d]oxazol-2-ylamino)-N-(4-bromophenyl)-4-(2-chlorophenyl)-6-methyl-1,4-dihydropyrimidine-5-carboxamide] | 15.3 | <14.9 1 × 10^−6 cm/sec | <1 | 9.68 | >30 |  |  | 9.68 | 15.3 |  |  |
| CC1=C(C(=O)N(C)c2ccccc2)C(c2ccccc2Cl)N=C(Nc2nc3ccccc3o2)N1 (stereo not drawn) [Compound 151, 2-(benzo[d]oxazol-2-ylamino)-4-(2-chlorophenyl)-N,6-dimethyl-N-phenyl-1,4-dihydropyrimidine-5-carboxamide] |  | 203.1 1 × 10^−6 cm/sec | <1 |  | 1.176 |  | in- active |  |  |  | in- active |
| CC1=C(C(=O)Nc2ccc(N(C)C)cc2)C(c2ccccc2Cl)N=C(Nc2nc3ccccc3o2)N1 (stereo not drawn) [Compound 152, 2-(benzo[d]oxazol-2-ylamino)-4-(2-chlorophenyl)-N-(4-(dimethylamino)phenyl)-6-methyl-1,4-dihydropyrimidine-5-carboxamide] | 13.7 | 15.0 1 × 10^−6 cm/sec | <1 | 7.69 | 11.45 |  |  | 7.69 | 13.7 |  |  |
| CC1=C(C(=O)Nc2cccc(Cl)c2)C(c2ccccc2Cl)N=C(Nc2nc3ccccc3o2)N1 (stereo not drawn) [Compound 154, 2-(benzo[d]oxazol-2-ylamino)-N-(3-chlorophenyl)-4-(2-chlorophenyl)-6-methyl-1,4-dihydropyrimidine-5-carboxamide] |  | <9.2 1 × 10^−6 cm/sec | <1 |  | >30 | inactive | in- active |  |  | inactive | in- active |
| CC1=C(C(=O)Nc2ccccc2CO)C(c2ccccc2Cl)N=C(Nc2nc3ccccc3o2)N1 (stereo not drawn) [Compound 156, 2-(benzo[d]oxazol-2-ylamino)-4-(2-chlorophenyl)-N-(2-(hydroxymethyl)phenyl)-6-methyl-1,4-dihydropyrimidine-5-carboxamide] | 17.2 | 1038.5 1 × 10^−6 cm/sec | <1 | 3.85 | 7.708 |  |  |  | 17.2 |  |  |
| CC1=C(C(=O)Nc2ccccc2O)C(c2ccccc2Cl)N=C(Nc2nc3ccccc3o2)N1 (stereo not drawn) [Compound 161, 2-(benzo[d]oxazol-2-ylamino)-N-(2-hydroxyphenyl)-4-(2-chlorophenyl)-6-methyl-1,4-dihydropyrimidine-5-carboxamide] | 17.2 | 21.1 1 × 10^−6 cm/sec | <1 |  | 17.94 |  |  | 6.85 | 17.2 |  |  |
| CC1=C(C(=O)Nc2ccc([N+](=O)[O-])cc2)C(c2ccccc2Cl)N=C(Nc2nc3ccccc3o2)N1 (stereo not drawn) [Compound 163, 2-(benzo[d]oxazol-2-ylamino)-4-(2-chlorophenyl)-6-methyl-N-(4-nitrophenyl)-1,4-dihydropyrimidine-5-carboxamide] | 3.43 | <7.3 1 × 10^−6 cm/sec | <1 | 3.43 | >30 |  |  | 3.43 | 3.43 |  |  |
| CC1=C(C(=O)Nc2ccc(C(=O)O)nc2)C(c2ccccc2Cl)N=C(Nc2nc3ccccc3o2)N1 (stereo not drawn) [Compound 164, 5-(2-(benzo[d]oxazol-2-ylamino)-4-(2-chlorophenyl)-6-methyl-1,4-dihydropyrimidine-5-carboxamido)picolinic acid] | 9.68 | <1 1 × 10^−6 cm/sec | 24.6 | 4.85 | >30 |  |  |  |  |  |  |
| CC1=C(C(=O)Nc2ccc(CO)nc2)C(c2ccccc2Cl)N=C(Nc2nc3ccccc3o2)N1 (stereo not drawn) [Compound 165, 2-(benzo[d]oxazol-2-ylamino)-4-(2-chlorophenyl)-N-(6-(hydroxymethyl)pyridin-3-yl)-6-methyl-1,4-dihydropyrimidine-5-carboxamide] | 7.69 | 766.1 1 × 10^−6 cm/sec | <1 | 4.85 | >30 |  |  |  |  |  |  |
| COC(=O)c1ccc(NC(=O)C2=C(C)NC(Nc3nc4ccccc4o3)=NC2c2ccccc2Cl)cn1 (stereo not drawn) [Compound 166, methyl 5-(2-(benzo[d]oxazol-2-ylamino)-4-(2-chlorophenyl)-6-methyl-1,4-dihydropyrimidine-5-carboxamido)picolinate] | 6.85 | 96.1 1 × 10^−6 cm/sec | <1 | 6.11 | 4.678 |  |  |  |  |  |  |

— US20230158025A1 (UNIVERSITY OF UTAH RESEARCH FOUNDATION, priority 2020, published 2023)
